Legend:
[1] = Particle size by Malvern light scattering technique; format: physicochemical; conditions: particle size of losartan active agent
Excerpt: “d (0.9)” denotes a particle size wherein 90% (volume) particles have diameter less than the specified diameter d.

[2] = Specific surface area by gas adsorption analyzer method (BET); format: physicochemical; conditions: losartan active agent
Excerpt: The results of our investigations have shown that it is advantageous to use losartan, with a particle size d (0.9) less than 50μ measured by Malvern light scattering technique, and/or a specific particle specific surface area more than 0.6 m^2/g measured by the Gas adsorption analyzer method (BET).

[3] = oral administration; cited from earlier work

d (0.1) [1]	d (0.5) [1]	d (0.9) [1]	Specific Surface Area [2]	SMILES	systemic bioavailability [3]
d (0.1) = 0.869μ	d (0.5) = 10.077μ	d (0.9) = 21.382μ	Specific Surface Area = 0.7-0.8 m^2/g	CCCCc1nc(Cl)c(CO)n1Cc1ccc(-c2ccccc2-c2nn[nH]n2)cc1 [A, Losartan Potassium]	–
d (0.1) = 1.806μ	d (0.5) = 24.812μ	d (0.9) = 53.931μ	Specific Surface Area = 0.4-0.5 m^2/g	CCCCc1nc(Cl)c(CO)n1Cc1ccc(-c2ccccc2-c2nn[nH]n2)cc1 [B, Losartan Potassium]	–
–	–	–	–	CCCCc1nc(Cl)c(CO)n1Cc1ccc(-c2ccccc2-c2nn[nH]n2)cc1 [losartan, Losartan]	approximately 33%

From patent US20090304755A1, “PHARMACEUTICAL FORMULATION OF LOSARTAN” (priority 2005, published 2009)
